We go through three compounds from ChEMBL document CHEMBL1121941, “Two clonidine-like compounds with substituents at the 2-, 3-, and 6-position of the phenyl ring possessing pronounced hypotensive potencies” (J Med Chem, 1982).

Data set [1] can be described thus: Partition coefficient (logP). The format is physicochemical. The conditions noted are these: octanol/water.
The next data set relates to Felis catus. Kind of data set: Hypotensive activity measured as the 20% decrease in mean arterial blood pressure in anesthetized cat. The format is functional.
In a further data set the test system is Rattus norvegicus. Kind of data set: Hypotensive activity measured as the 20% decrease in mean arterial blood pressure in anesthetized normotensive rat. The class given is functional.

Consider `Cc1ccc(Cl)c(Cl)c1NC1=NCCN1`, for which the lipophilicity (logP) (usually the decadic logarithm of the partition coefficient of the neutral form, usually between octanol and water) in data set [1] worked out at 1.06. For the same compound, the pC20 in the data set on Felis catus turned out to be 7.92; in the data set on Rattus norvegicus it was 7.79.
The corresponding values for `Clc1ccc(Cl)c(NC2=NCCN2)c1Cl` are 1.71, 9.17 and 8.39.
The corresponding values for `Clc1cccc(Cl)c1NC1=NCCN1` [CLONIDINE] are 0.91, 8.72 and 7.96.
